Results: patent US20080260716A1, “Method and Composition for High Level Disinfection Employing Quaternary Ammonium Compounds” (priority 2004, published 2008)
Where two headings read alike, the source gives them in different places.

Tests used:
Mycobacterium terrae = assay: AOAC tuberculocidal test, kill time; assay type: cell-based; settings: for Kill Time M. terrae: tests 7.1-7.4, 1% of the quat, 50° C.
From the text: These standards are based on the known or possible risk of contamination of a particular medical device by a particular micro-organism, the pathogenic nature of the organism and other principles in infection control. […] The test panels and criteria are different for “low”, “intermediate” or “high-level disinfection”. These terms are herein used in accordance with current Food and Drug Administration (“FDA”) criteria for levels of disinfection which are detailed in Premarket Notification [510(k)] Submissions for Liquid Chemical Sterilants and High Level Disinfectants FDA 1997: “A germicide that inactivates all microbial pathogens except large number of bacterial endospores when used according to labelling”. In brief, the FDA regulatory requirement for high level disinfectants includes as the most challenging test a 100% kill of Mycobacterium tuberculosis var. bovis (or a specific strain of a suitable surrogate, such as Mycobacterium terrae) in 400 p.p.m. hard water in the presence of 2% horse serum in a quantitative tuberculocidal test.
In the following tables unless otherwise specified references to “kill time” mean the time required to achieve complete kill as defined in the relevant AOAC test (more particularly identified in annexure 1). “No kill” means less than 2 log reduction from the initial population. Unless otherwise specified “QUAT” is benzalkonium chloride, specifically Gardiquat NC-50 (Albright & Wilson). Test points for vegetative bacteria (M. terrae) were 2, 5, 10, 20 and 60 mins. Test points for spores were 0.5, 1, 2, 4, 16, 24, 48 hours. The last column in each table indicates whether the tested combination satisfies the FDA requirement for high level disinfection (“HLD”) or fails to do so (“F”).
AOAC tests for determination of High level Disinfection as defined in current FDA criteria (detailed in “Premarket Notification [510(k)] Submissions for Liquid Chemical Sterilants and High Level Disinfectants FDA 1993”.):
AOAC Tuberculocidal Activity of Disinfectants
AOAC Ref No 965.12, AOAC Official Methods of Analysis (1995)

B. subtilis spores = assay: AOAC sporicidal test, kill time; assay type: cell-based; settings: 50° C.
C. sporogens spores = assay: AOAC sporicidal test, kill time; assay type: cell-based; settings: 50° C.
[1] = tested on: Mycobacterium terrae, B. subtilis, C. sporogens; design: key: satisfies the FDA requirement for high level disinfection (“HLD”); fails to do so (“F”)
[2] = 30 min, 20° C. (Sporox); cited from earlier work
[3] = tests 7.1-7.4, 1% of the quat, 50° C.

CCCCCCCCCC[N+](C)(C)CCCCCCCCCC.[Cl-] [Quat(1), Didecyl Dimethyl Ammonium Chloride]
Kill Time M. terrae (Mycobacterium terrae): <10 min
Kill Time B. subtilis (B. subtilis spores; test 7.1, 1% Quat(1)): <2 h
Kill Time C. sporogens (C. sporogens spores; test 7.1, 1% Quat(1)): <2 h
HLD or F [1, 3]: HLD

CCCCCCCC[N+](C)(C)CCCCCCCC.[Cl-] [Quat(2), Dioctyl Dimethyl Ammonium Chloride]
Kill Time M. terrae (Mycobacterium terrae): <10 min
Kill Time B. subtilis (B. subtilis spores; tests 7.2-7.4, 1% of the quat): <2 h
Kill Time C. sporogens (C. sporogens spores; tests 7.2-7.4, 1% of the quat): <2 h
HLD or F [1, 3]: HLD

CC(C)(C)CC(C)(C)c1ccc(OCCOCC[N+](C)(C)Cc2ccccc2)cc1 [benzethonium chloride, reference compound]
effectiveness against Mycobacterium (Mycobacterium terrae; 0.25%, temperatures above 60° C., with ultrasound): not effective
HLD or F ([1]; test 1.3, 0.25% benzethonium chloride, 0.25% Triton X-100, 5% isopropanol, 62° C. + ultrasound 20 min/hr): F

OO [peroxide, hydrogen peroxide]
minimum effective concentration for high-level disinfection [2]: 6.0%

N-Alkyl Dimethyl Ammonium Chloride [Quat(3)]
Kill Time M. terrae (Mycobacterium terrae): <10 min
Kill Time B. subtilis (B. subtilis spores; tests 7.2-7.4, 1% of the quat): <2 h
Kill Time C. sporogens (C. sporogens spores; tests 7.2-7.4, 1% of the quat): <2 h
HLD or F [1, 3]: HLD
